This note sets out measurements from patent US9458460B2, “Pharmaceutical compositions for treating cancer” (National University of Singapore, priority 2011, dated 2016).

Read-outs that look alike come from different tables or passages of the source.

Common to all, as to type: cell-based
One test has as its system BMP4. In words: BMP4 expression after 5-azadC treatment. Here is the method:
(§1) Gastric cancer cell lines were treated with 5-aza-2′-deoxycytidine (5-azadC), a chemical inhibitor of DNA methyltransferases to investigate if BMP4 gene expression is regulated by BMP4 promoter methylation.

The next test has as its system SMAD1/5/8. Put plainly: phosphorylation of BMP-downstream targets after 5-azadC treatment. As for the experimental part:
as §1

Test [1] deals with YCC11 cells. Put plainly: cisplatin growth inhibition (GI50) in GC cell lines. The following applies: 48 hrs. Here is the method:
(§2) 20 GC cell lines were treated with increasing concentrations of cisplatin, from 0.1 μM to 1 mM. For each line, the cisplatin GI50, referring to the concentration of cisplatin required to cause 50% growth inhibition at 48 hrs.

A further test deals with AGS cells. The test is described as above. The following applies: 48 hrs. As for the experimental part:
as §2

Another test relates to AZ521 cells. Put plainly: cisplatin growth inhibition and caspase-3 activation in BMP4-manipulated cells. Particulars: for GI50: read-out: absolute GI50.
The subject of test [2] is YCC11 cells. The description is as above. Particulars: for IC50: read-out: absolute 0150.
The next test concerns GC cells. In words: high-content screening of morpho-cellular parameters after cisplatin treatment. Here is the method:
The reason for cell growth inhibition caused by cisplatin was determined using high-content screening (HCS), a cell-based technology allowing biological responses to be measured at the single-cell level, to quantify levels of caspase-3 activation in GC cells after cisplatin treatment. Five distinct morpho-cellular parameters were quantified for alterations induced by cisplatin—caspase3 activation, nuclear size, nuclear condensation, nuclear morphology and nuclear ellipticity.

For `Nc1ncn([C@H]2C[C@H](O)[C@@H](CO)O2)c(=O)n1` [5-azadC, 5-aza-2′-deoxycytidine], the BMP4 transcripts entry in the test with BMP4 (cisplatin sensitive lines YCC10 and YCC11 (BMP4 promoter methylated)) is listed as “up-regulated”. In addition, in the test with BMP4 (resistant cell lines MKN45 and AZ521 (BMP4 promoter unmethylated)), the BMP4 expression result is recorded as “did not alter”. For the same compound, in the test on SMAD1/5/8 (cisplatin resistant lines MKN45 and AZ521), the “phosphorylated SMAD1/5/8” value is on record as “not affected”. For the same compound, in the test with SMAD1/5/8 (cisplatin sensitive lines YCC10 and YCC11), the “phosphorylation of SMAD1/5/8” value is listed as “increased”.
The term GI50 denotes the concentration giving 50% growth inhibition. Turning to `N.N.[Cl][Pt][Cl]` [cisplatin, cis-diamminedichloroplatinum (II)], the GI50 in the test on YCC11 cells [1] was 1.5 µM; in the test with AGS cells it was 126 µM; in the test with AZ521 cells (BMP4-silenced AZ521 cells (individual clones 1 and 2)) it was 1.1 to 3.24 µM; in the test on AZ521 cells (parental AZ521 cells), 15 µM. For the same compound, the caspase-3 activation levels entry in the test on AZ521 cells (BMP4-silenced AZ521 cells compared to control cells, after cisplatin treatment) was “significantly higher”; with GC cells (cisplatin-sensitive lines compared to cisplatin-resistant lines), “Significantly higher”. Further, the IC50 was 0.2 to 0.5 µM in the test with YCC11 cells [2] (BMP4-overexpressing YCC11 cells (individual clones 1 and 2)); 0.045 µM in the test with YCC11 cells [2] (parental YCC11 cells). Further, the “active Caspase-3 levels” value in the test with YCC11 cells [2] (BMP4-overexpressing YCC11 cells, after cisplatin) is on record as “reduction”. Also, in the test on GC cells (top four sensitive lines compared to resistant lines), the nuclear ellipticity entry is given as “Significant changes”.
